Source: article PMC8333425, “Discovery of a dual Ras and ARF6 inhibitor from a GPCR endocytosis screen” (Nature Communications, 2021)

Tests used:
Ras = Ras BRET sensor (Raf1-RBD-RlucII / rGFP-CAAX), AT1R-mediated; type: cell-based, human
Source text: (§1) Since 21 inhibited both ERK1/2 and Akt activation by GPCRs and EGFR, we looked at a common target involved in both pathways. The small G protein Ras is an upstream regulator of both Ras-RAF-MEK-ERK and PI3K/Akt signaling pathways[35],[36]. Therefore, we explored 21’s ability to inhibit Ras activity using GST-Raf1-Ras-binding domain (RBD) in a pull-down assay. A reduction of 60% in GTP-bound Ras was noticed in pulled-down from cells treated with 21 and stimulated with either AT1R or EGFR, as compared to vehicle-treated cells (Fig. 4a, b). Complementary to this in vitro assay, we generated a Ras BRET assay, using the Raf-Ras binding domain tagged with RlucII (Raf1-RBD-RlucII) and the rGFP at the PM (rGFP-CAAX) (Supplementary Fig. 3c), to assess 21’s effects on Ras activation kinetics. […] Overexpression of either the active form of Ras (G12V) or SOS1 anchored at the PM (SOS-CAAX) produced a robust basal BRET signal that was no longer modulated by receptor activation (Supplementary Fig. 3d). […] 21’s potency to inhibit ARF6 and Ras is also consistent with its relative efficacy for inhibiting AT1R internalization and MAPK, respectively, when used at 50 μM (e.g., around 7 and 70 times the respective IC50s) (Figs. 2e and 3a). We also assessed if 21 was acting as a pan small G protein inhibitor by testing its effect on Rho and Rac/Cdc42. […] To assess Rac/Cdc42 activity, we generated a Rac/Cdc42 BRET sensor that consisted of the PAK-CRIB domain fused to RlucII (PAK-CRIB-RlucII) and the rGFP-CAAX (Supplementary Fig. 3e). PAK-CRIB, which binds to active Rac/Cdc42, was recruited to the PM upon AngII stimulation of cells and generated a robust BRET signal, which was blocked by the overexpression of the DN Rac1-T17N. Overexpression of the constitutively active Rac1-Q61L increased the basal BRET, which was no longer modulated by AT1R stimulation (Supplementary Fig. 3f).
(§2) HEK293SL cells were seeded at a density of 7.5 × 10^5 cells per 100-mm dish and 24 h later, transiently transfected as such. For receptor internalization experiments, cells were transfected with 0.12 μg AT1R-RlucII, B2R-RlucII, or β2AR-RlucII and 0.48 μg of either rGFP-CAAX (to assess removal from the PM) or rGFP-FYVE (to assess accumulation in the endosomes). For β-arrestin recruitment assays, cells were transfected with 0.48 μg of receptor-YFP along with 0.12 μg of β-arrestin-RlucII. For β-arrestin/AP-2 binding experiments, cells were transfected with 1 μg Flag-AT1R, 1 μg β2-Adaptin-YFP, and 0.12 μg β-arrestin2-RlucII. For G protein activation, cells were transfected with 3 μg of sp-Flag-AT1R along with either 4.5 μg of the Gαq-polycistronic BRET sensor or 0.24 μg of the Gαi3-RlucII and 0.6 μg of GFP10-Gγ2 and Gβ1 sensors or 0.12 μg PKN-RBD-RlucII and 0.48 μg of rGFP-CAAX. For PKC activation, cells were transfected with 3 μg of sp-Flag-AT1R and 0.18 μg of the PKC sensor. For GTPase activation experiments, cells were transfected with 1 μg Flag-AT1R, 0.48 μg of rGFP-CAAX, and either 0.12 μg of GGA3-PBD-RlucII, PAK-CRIB-RlucII or Raf-RBD-RlucII. For biosensor validation experiments, cells were additionally transfected with 500 ng Flag-K-Ras-WT, Flag-K-Ras-G12V, Flag-K-Ras-SOS-CAAX, HA-ARF6-WT, HA-ARF6-T27N, Myc-Rac1-WT, Myc-Rac1-Q61L or Myc-Rac1-T17N. For PI3K/Akt activation experiments, cells were transfected with 0.48 μg of rGFP-CAAX and 0.12 μg of Akt (PH)-RlucII. After 18 h of transfection, the media was replaced and cells were divided for subsequent experiments. Cells were detached and seeded onto poly-L-ornithine-coated 96-well flat white bottom plates (BrandTech Scientific) at a density of 2.5 × 10^4 cells per well in media. The next day, cells were washed once with Tyrode’s buffer (140 mM NaCl, 2.7 mM KCl, 1 mM CaCl2, 12 mM NaHCO3, 5.6 mM D-glucose, 0.5 mM MgCl2, 0.37 mM NaH2PO4, 25 mM HEPES, pH 7.4) and left in Tyrode’s buffer. […]

Rac/Cdc42 = Rac/Cdc42 BRET sensor (PAK-CRIB-RlucII / rGFP-CAAX), AT1R-mediated; type: cell-based, human
Source text: as §1, §2

K-Ras = K-Ras (Homo sapiens, UniProt P01116); assay: In vitro mant-GTP exchange assay, purified K-Ras-WT with SOS1; type: biochemical; parameters: GST (N); FLAG (N); host or cells: E. coli BL21; conditions: 50 μM
Procedure: Ras activity was assessed in a 384-well black bottom plate using the mant-GTP exchange factor assay that measures the uptake of the fluorescent nucleotide analog N-methylanthraniloyl-GTP (mant-GTP) into GTPases. For Ras activation, 2X exchange buffer, 1.66 μg of purified pGEX-6P-1-H-Ras or pGEX-6P-1-K-Ras-WT or pGEX-6P-1-K-Ras-Y32A were added per well in presence of DMSO, different concentrations of Rasarfin (as indicated) or 50 µM of compounds 21.4, 21.7, or 21.8. Using the Infinite 200 Pro plate reader (Tecan) with filters set at 360 nm and 440 nm for detecting the excitation and emissions, respectively, and temperature set at 20 °C, 5 readings were recorded every 5 s before the addition of either H2O, 40 mM EDTA or 0.66 μg purified SOS1. The fluorescence of mant-GTP uptake was measured every 30 sec for 30 min and quantified as the delta relative fluorescence units (RFU), which was calculated as the RFU post-addition minus the 5 averaged RFU pre-addition, per condition.

Sequence of K-Ras (P01116 1-188 isoform P01116-2): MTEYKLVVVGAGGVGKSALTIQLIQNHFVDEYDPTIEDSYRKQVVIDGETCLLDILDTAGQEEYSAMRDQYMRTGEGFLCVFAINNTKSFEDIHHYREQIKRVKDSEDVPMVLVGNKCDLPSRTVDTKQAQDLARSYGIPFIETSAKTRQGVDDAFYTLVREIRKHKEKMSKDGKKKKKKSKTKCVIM

## CC(C)C(=O)N1CCN(c2ccc(NC(=O)c3cc4ccccc4o3)cc2Cl)CC1 [Compound 21]
Ras; 50 μM
  decrease of Ras activation following AT1R stimulation (Ras BRET assay): 50–70%
Ras; AT1R, dose-response
  IC50: 700 nM
Ras; Comp 21 50 μM, Time 0 min
  Ras BRET sensor signal (Fig.4c), single experiments: 0
Ras; Log [Comp 21] (M) -4
  Ras MEAN (Fig.4d): 16.3196
Ras; Log [Comp21] (M) -4.3
  Ras MEAN (Fig.4d): 30.5907
Ras; Log [Comp21] (M) -5
  Ras MEAN (Fig.4d): 29.6351
Ras; Log [Comp21] (M) -5.3
  Ras MEAN (Fig.4d): 36.1989
Ras; Log [Comp 21] (M) -6
  Ras MEAN (Fig.4d): 54.1758
Ras; Log [Comp21] (M) -6.3
  Ras MEAN (Fig.4d): 74.1367
Ras; Log [Comp 21] (M) -7
  Ras MEAN (Fig.4d): 95.616
Rac/Cdc42
  Rac/Cdc42 activation mediated by AT1R (BRET sensor): failed to inhibit Rac/Cdc42 activation
Rac/Cdc42; Log [Comp 21] (M) -4
  Rac MEAN (Fig.4d): 98.9456
Rac/Cdc42; Log [Comp21] (M) -4.3
  Rac MEAN (Fig.4d): 92.4505
Rac/Cdc42; Log [Comp21] (M) -5
  Rac MEAN (Fig.4d): 96.5837
Rac/Cdc42; Log [Comp21] (M) -5.3
  Rac MEAN (Fig.4d): 100.464
Rac/Cdc42; Log [Comp 21] (M) -6
  Rac MEAN (Fig.4d): 102.348
Rac/Cdc42; Log [Comp21] (M) -6.3
  Rac MEAN (Fig.4d): 96.0354
Rac/Cdc42; Log [Comp 21] (M) -7
  Rac MEAN (Fig.4d): 96.1409
K-Ras
  SOS-mediated mant-GTP binding onto purified K-Ras: inhibited the SOS-mediated mant-GTP binding
